How the values were obtained:
Details in all cases: read-out: Km[HCO3 ^-]; pH 8, 50 mM NaCl, 24 °C; labelled compound; corrected for respiratory Ci
SbtA6803 = molecular target: T1, SbtA6803 (Synechocystis sp. PCC 6803, UniProt P73953)
T1 construct: gene slr1512

SbtA6307 (SbtA1) = system: T2, SbtA6307 (SbtA1)
T2 construct: gene sbtA

SbtA5701 (SbtA1) = system: T3, SbtA5701 (SbtA1)
T3 construct: gene sbtA

SbtA7942 = molecular target: T4, SbtA7942 (Synechococcus elongatus, UniProt Q31N64)
T4 construct: gene Synpcc7942_1475
T4 sequence (Q31N64 1-373): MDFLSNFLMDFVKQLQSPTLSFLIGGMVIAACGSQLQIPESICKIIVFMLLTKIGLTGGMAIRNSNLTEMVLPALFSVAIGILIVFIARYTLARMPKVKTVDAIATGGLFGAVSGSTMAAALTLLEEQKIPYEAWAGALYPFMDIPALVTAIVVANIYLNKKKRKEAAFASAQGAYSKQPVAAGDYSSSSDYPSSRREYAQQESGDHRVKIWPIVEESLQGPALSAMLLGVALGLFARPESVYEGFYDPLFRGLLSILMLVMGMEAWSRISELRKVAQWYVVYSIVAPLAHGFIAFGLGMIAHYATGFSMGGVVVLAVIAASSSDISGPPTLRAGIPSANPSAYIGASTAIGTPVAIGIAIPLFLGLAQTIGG

T1 sequence (P73953 1-374): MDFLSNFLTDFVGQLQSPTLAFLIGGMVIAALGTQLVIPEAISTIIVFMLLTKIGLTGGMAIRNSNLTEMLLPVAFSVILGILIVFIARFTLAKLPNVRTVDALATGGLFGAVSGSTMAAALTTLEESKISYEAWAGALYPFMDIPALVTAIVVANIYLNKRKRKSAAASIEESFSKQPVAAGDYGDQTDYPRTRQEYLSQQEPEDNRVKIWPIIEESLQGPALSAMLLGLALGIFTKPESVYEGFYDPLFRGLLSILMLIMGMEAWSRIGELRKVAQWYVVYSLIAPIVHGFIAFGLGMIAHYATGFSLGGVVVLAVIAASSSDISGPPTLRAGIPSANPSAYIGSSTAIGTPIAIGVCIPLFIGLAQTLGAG

Km (SbtA6803): < 100 µM | Km (SbtA6307 (SbtA1)): < 100 µM | Km (SbtA5701 (SbtA1)): < 100 µM | Km (SbtA7942): < 100 µM
SMILES: O=C(O)O [HCO3 ^-]

— paper PMC4275256 (PLoS ONE, 2014)
